Test results: US10947229B2, “Dimethyl amino azetidine amides as JAK inhibitors” (THERAVANCE BIOPHARMA R&D IP, LLC, priority 2018, dated 2021)

Key:
[1] = system: spontaneous IL-6 secretion; assay: Inhibition of spontaneous IL-6 secretion in human 3D airway cultures from asthmatic donors; assay type: cell-based; conditions: 192 h, 8 days, 3 or 4 donors
Procedure: EpiAirway tissue cultures were obtained from Mattek (AIR-100). Cells were derived from asthmatic donors that spontaneously secrete periostin, a matricellular protein associated with Th2 mediated asthma (eosinophilic), and interleukin-6 (IL-6), an inflammatory cytokine that plays a role in both Th2 and non-Th2 related asthma. In a cell culture insert, human derived tracheal/bronchial epithelial cells were grown and differentiated on a porous membrane support, allowing an air-liquid interface with warmed culture medium below the cells and a gaseous test atmosphere above. Tissues were cultured in maintenance media ([…]) in a 37° C., 5% CO2 humidified incubator. Four donors were tested. On Day 0, tissue cultures were treated with test compounds in liquid interface at 10 μM, 1 μM and/or 0.1 μM. Compounds were diluted in dimethyl sulfoxide (DMSO, Sigma) to a final concentration of 0.1%. DMSO at 0.1% was used as a vehicle control. Tissue cultures were maintained for 8 days. Media was replaced every 2 days with fresh media containing compounds. On Day 8, supernatants were collected for analysis. Supernatant samples were assayed for periostin and interleukin-6 (IL-6) using luminex analysis (EMD Millipore). Data is expressed as % Inhibition+/-standard deviation (±STDV). Percent inhibition was determined by compound inhibitory potency against spontaneous secretion of periostin and IL-6 compared to vehicle treated cells. Data is the average from 3 or 4 donors.

[2] = Pharmacokinetics in plasma and lung in mouse; assay type: in vivo; conditions: single oral aspiration, 0.2 mg/mL, 50 μL
Procedure: Plasma and lung concentrations of test compounds and ratios thereof were determined in the following manner. BALB/c mice from Charles River Laboratories were used in the assay. Test compounds were individually formulated in 20% propylene glycol in pH 4 citrate buffer at a concentration of 0.2 mg/mL and 50 μL of the dosing solution was introduced into the trachea of a mouse by oral aspiration. At various time points (typically 0.167, 2, 6, 24 hr) post dosing, blood samples were removed via cardiac puncture and intact lungs were excised from the mice.

[3] = system: IFNγ induced CXCL10 secretion; assay: Inhibition of IFNγ induced CXCL10 in human 3D airway cultures; assay type: cell-based; conditions: 192 h, 8 days, 4 donors
Procedure: EpiAirway tissue cultures were obtained from Mattek (AIR-100). Cultures were derived from asthmatic donors. In a cell culture insert, human derived tracheal/bronchial epithelial cells were grown and differentiated on a porous membrane support, allowing an air-liquid interface with warmed culture medium below the cells and a gaseous test atmosphere above. Tissues were cultured in maintenance media ([…]) in a 37° C., 5% CO2 humidified incubator. Four donors were tested. On Day 0, tissue cultures were treated with test compounds in liquid interface at 10 μM, 1 μM and/or 0.1 μM. Compounds were diluted in dimethyl sulfoxide (DMSO, Sigma) to a final concentration of 0.1%. DMSO at 0.1% was used as a vehicle control. […] Tissue cultures were maintained for 8 days. Media was replaced every 2 days with fresh media containing compounds and IFNγ or IL-27. On Day 8, tissue cultures and supernatants were collected for analysis. Supernatant samples were assayed for CXCL10 (IP-10) and CXCL9 (MIG) using luminex analysis (EMD Millipore). Data is expressed as % Inhibition+/-standard deviation (±STDV). Percent inhibition was determined by compound inhibitory potency against IFNγ or IL-27 induced CXCL10 or CXCL9 secretion compared to vehicle treated cells. Data is the average from 4 donors.

JAK2 = JAK2 (Homo sapiens (Human), UniProt O60674); assay: Biochemical JAK kinase assay (LanthaScreen), JAK2; conditions: read-out: JAK2 pKi (converted)
Sequence of JAK2 (O60674 whole entry): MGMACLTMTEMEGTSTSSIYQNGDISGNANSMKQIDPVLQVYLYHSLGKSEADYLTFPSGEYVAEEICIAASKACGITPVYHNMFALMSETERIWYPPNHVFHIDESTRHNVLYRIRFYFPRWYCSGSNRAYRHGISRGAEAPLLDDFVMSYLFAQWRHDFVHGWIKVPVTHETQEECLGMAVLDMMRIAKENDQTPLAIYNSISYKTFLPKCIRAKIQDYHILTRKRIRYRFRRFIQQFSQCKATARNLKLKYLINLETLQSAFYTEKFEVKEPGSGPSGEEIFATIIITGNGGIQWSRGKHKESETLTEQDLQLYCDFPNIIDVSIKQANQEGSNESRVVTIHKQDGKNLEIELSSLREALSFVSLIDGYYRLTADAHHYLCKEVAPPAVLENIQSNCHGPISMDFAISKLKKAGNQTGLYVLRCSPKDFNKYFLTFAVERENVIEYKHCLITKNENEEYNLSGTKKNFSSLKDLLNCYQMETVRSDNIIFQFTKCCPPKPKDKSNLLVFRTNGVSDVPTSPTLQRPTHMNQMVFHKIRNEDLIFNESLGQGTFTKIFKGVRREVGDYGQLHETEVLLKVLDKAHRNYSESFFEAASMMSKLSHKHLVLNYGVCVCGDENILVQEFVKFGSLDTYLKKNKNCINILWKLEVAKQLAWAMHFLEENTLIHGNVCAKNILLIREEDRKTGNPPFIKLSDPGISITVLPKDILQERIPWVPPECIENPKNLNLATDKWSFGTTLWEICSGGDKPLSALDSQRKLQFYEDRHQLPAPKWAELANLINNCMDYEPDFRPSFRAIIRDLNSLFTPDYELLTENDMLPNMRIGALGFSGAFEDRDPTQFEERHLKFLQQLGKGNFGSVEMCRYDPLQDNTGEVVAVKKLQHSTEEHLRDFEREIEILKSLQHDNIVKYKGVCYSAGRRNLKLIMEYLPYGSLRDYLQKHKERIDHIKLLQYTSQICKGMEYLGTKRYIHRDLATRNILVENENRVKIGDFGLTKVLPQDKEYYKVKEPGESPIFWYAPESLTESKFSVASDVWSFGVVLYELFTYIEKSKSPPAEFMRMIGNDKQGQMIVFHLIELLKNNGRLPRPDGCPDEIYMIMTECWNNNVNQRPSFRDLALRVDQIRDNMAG
Procedure: Recombinant GST-tagged JAK enzymes and a GFP-tagged STAT1 peptide substrate were obtained from Life Technologies. Serially diluted compounds were pre-incubated with each of the four JAK enzymes and the substrate in white 384-well microplates (Corning) at ambient temperature for 1 h. ATP was subsequently added to initiate the kinase reactions in 10 μL total volume, with 1% DMSO. […] Kinase reactions were allowed to proceed for 1 hour at ambient temperature before a 10 μL preparation of EDTA (10 mM final concentration) and Tb-anti-pSTAT1 ([…]) antibody (Life Technologies, 2 nM final concentration) in TR-FRET dilution buffer (Life Technologies) was added. The plates were allowed to incubate at ambient temperature for 1 h before being read on the EnVision reader (Perkin Elmer). Emission ratio signals (520 nm/495 nm) were recorded and utilized to calculate the percent inhibition values based on DMSO and background controls. For dose-response analysis, percent inhibition data were plotted vs. compound concentrations, and IC50 values were determined from a 4-parameter robust fit model with the Prism software (GraphPad Software). Results were expressed as pIC50 (negative logarithm of IC50) and subsequently converted to pKi (negative logarithm of dissociation constant, Ki) using the Cheng-Prusoff equation. Test compounds having a lower Ki value or higher pKi value in the four JAK assays show greater inhibition of JAK activity.

## CCc1cc(O)ccc1-c1ccc2c(-c3nc4c([nH]3)CN(C(C)C)[C@H](C(=O)N3CC(N(C)C)C3)C4)n[nH]c2c1 [Compound 1, (S)-(3-(dimethylamino)azetidin-1-yl)(2-(6-(2-ethyl-4-hydroxyphenyl)-1H-indazol-3-yl)-5-isopropyl-4,5,6,7-tetrahydro-3H-imidazo[4,5-c]pyridin-6-yl)methanone]
[1]; 0.1 μM
  inhibition at 0.1 µM: 10%
[1]; 1 μM
  inhibition at 1 µM: 70%
[1]; 10 μM
  inhibition at 10 µM: 91%
[2]; BALB/c, in vivo, 10 µg/animal, read-out: Plasma AUC(0-24)
  AUC(0-t): 943 ng·h/mL
[2]
  Lung Tissue AUC(0-24): 54.5 µg·h/g
[3]; 0.1 μM
  inhibition at 0.1 µM: 18%
[3]; 1 μM
  inhibition at 1 µM: 76%
[3]; 10 μM
  inhibition at 10 µM: 100%
JAK2
  Ki: 0.0316 nM
